Patent publication US9938273B2 (Plexxikon Inc., priority 2015, dated 2018)

Assays:
[1] = test system: MOLM-14 D835Y cells, FLT3 ITD and FLT3 D835Y; experiment: Cell proliferation assay (CellTiter-Glo), MOLM-14 D835Y; assay type: cell-based; conditions: Homo sapiens, 72 h, 3d-Growth, GMean
Outline: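 MOLM-14 AML cells (endogenous FLT3 ITD, AC220-selected D835Y or F691L variants) or murine Ba/F3 expressing full-length FLT3 ITD/D835Y, without IL-3 for FLT3 dependence, 1×10^4 cells/well. Eight-point 1:3 series from 1 μM final, 0.2% DMSO, 3 days at 37 °C. CellTiter-Glo luminescence (ATP) gave IC50.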

FLT3-D835Y = target: T1, FLT3-D835Y (Homo sapiens, UniProt P36888, D835Y); experiment: AlphaScreen kinase assay with recombinant enzyme, FLT3-D835Y; assay type: biochemical; conditions: 8pt, GMean
T1 construct: purchased Invitrogen PV3967
T1 sequence (P36888 27-993 D835Y): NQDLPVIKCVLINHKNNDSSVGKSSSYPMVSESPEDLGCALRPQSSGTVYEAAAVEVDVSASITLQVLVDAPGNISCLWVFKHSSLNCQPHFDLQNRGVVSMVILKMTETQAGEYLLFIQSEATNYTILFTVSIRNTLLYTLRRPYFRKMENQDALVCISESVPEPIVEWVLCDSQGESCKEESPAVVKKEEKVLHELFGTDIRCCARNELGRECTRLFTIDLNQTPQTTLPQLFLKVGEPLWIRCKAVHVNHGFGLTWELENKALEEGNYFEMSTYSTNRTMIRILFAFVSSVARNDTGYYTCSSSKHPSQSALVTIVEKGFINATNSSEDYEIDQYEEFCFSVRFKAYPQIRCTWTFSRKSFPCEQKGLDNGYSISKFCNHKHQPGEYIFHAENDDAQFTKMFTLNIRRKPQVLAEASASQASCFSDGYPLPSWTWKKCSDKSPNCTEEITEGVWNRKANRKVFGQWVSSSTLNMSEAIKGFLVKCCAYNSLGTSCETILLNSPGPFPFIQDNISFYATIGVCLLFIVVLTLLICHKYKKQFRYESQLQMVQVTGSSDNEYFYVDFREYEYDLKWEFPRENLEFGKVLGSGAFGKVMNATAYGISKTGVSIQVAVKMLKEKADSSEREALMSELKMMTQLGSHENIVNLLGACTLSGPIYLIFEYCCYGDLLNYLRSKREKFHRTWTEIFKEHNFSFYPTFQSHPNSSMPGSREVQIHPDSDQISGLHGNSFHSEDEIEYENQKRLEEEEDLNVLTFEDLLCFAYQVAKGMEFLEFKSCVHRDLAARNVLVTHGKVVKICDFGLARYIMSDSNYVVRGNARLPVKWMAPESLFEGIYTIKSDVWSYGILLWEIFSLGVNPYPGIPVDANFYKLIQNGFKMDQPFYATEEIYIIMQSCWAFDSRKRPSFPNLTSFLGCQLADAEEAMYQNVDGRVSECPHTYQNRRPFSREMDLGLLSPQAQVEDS
Outline: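 Compounds in DMSO added to enzyme plus biotin-poly(Glu4-Tyr) (30 nM) in assay buffer, then ATP added. Streptavidin donor beads added (20 min, RT), then PY20 acceptor beads (60 min, RT), both at 10 μg/mL final in stop/detection buffer. IC50 conditions: 10 μM FLT3-D835Y/ITD, 100 μM c-KIT.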

Row | IC50 [1] [µM] | IC50 (FLT3-D835Y) [µM] | SMILES
1 | 0.0001 to 10 | 0.0001 to 10 | CC(C)(C#N)NC(=O)c1cccc(-c2cnc3[nH]c(-c4ccc(N5CCOCC5)nc4)cc3c2)n1 [Compound P-0197, N-(1-cyano-1-methyl-ethyl)-6-[2-(6-morpholino-3-pyridyl)-1H-pyrrolo[2,3-b]pyridin-5-yl]pyridine-2-carboxamide]
2 | 0.0001 to 10 | 0.0001 to 10 | CC(C)(C#N)NC(=O)c1cccc(-c2cnc3[nH]c(-c4cnc(N5CCOCC5)nc4)cc3c2)n1 [Compound P-0198, N-(1-cyano-1-methyl-ethyl)-6-[2-(2-morpholinopyrimidin-5-yl)-1H-pyrrolo[2,3-b]pyridin-5-yl]pyridine-2-carboxamide]
3 | 0.0001 to 10 | 0.0001 to 10 | CC(C)(C#N)NC(=O)c1cccc(-c2cnc3[nH]c(-c4cccc(N5CCCS5(=O)=O)c4)cc3c2)n1 [Compound P-0199, N-(1-cyano-1-methyl-ethyl)-6-[2-[3-(1,1-dioxo-1,2-thiazolidin-2-yl)phenyl]-1H-pyrrolo[2,3-b]pyridin-5-yl]pyridine-2-carboxamide]
4 | 0.0001 to 10 | 0.0001 to 10 | CC(C)(NC(=O)c1cccc(-c2cnc3[nH]c(-c4cnn(C5CCNCC5)c4)cc3c2)n1)C(N)=O [Compound P-0200, N-(2-amino-1,1-dimethyl-2-oxo-ethyl)-6-[2-[1-(4-piperidyl)pyrazol-4-yl]-1H-pyrrolo[2,3-b]pyridin-5-yl]pyridine-2-carboxamide]
5 | 0.0001 to 10 | 0.0001 to 10 | CC(C)(C#N)NC(=O)c1cccc(-c2cnc3[nH]c(-c4ccc(C(F)(F)F)nc4)cc3c2)n1 [Compound P-0201, N-(1-cyano-1-methyl-ethyl)-6-[2-[6-(trifluoromethyl)-3-pyridyl]-1H-pyrrolo[2,3-b]pyridin-5-yl]pyridine-2-carboxamide]
6 | 0.0001 to 10 | 0.0001 to 10 | CC(C)(C#N)NC(=O)c1cccc(-c2cnc3[nH]c(-c4cnc(N5CCCC5)nc4)cc3c2)n1 [Compound P-0202, N-(1-cyano-1-methyl-ethyl)-6-[2-(2-pyrrolidin-1-ylpyrimidin-5-yl)-1H-pyrrolo[2,3-b]pyridin-5-yl]pyridine-2-carboxamide]
7 | 0.0001 to 10 | 0.0001 to 10 | CCOc1ncc(-c2cc3cc(-c4cccc(C(=O)NC(C)(C)C#N)n4)cnc3[nH]2)cn1 [Compound P-0203, N-(1-cyano-1-methyl-ethyl)-6-[2-(2-ethoxypyrimidin-5-yl)-1H-pyrrolo[2,3-b]pyridin-5-yl]pyridine-2-carboxamide]
8 | 0.0001 to 10 | 0.0001 to 10 | CC(C)(C#N)NC(=O)c1cccc(-c2cnc3[nH]c(-c4cnc(C(F)(F)F)nc4)cc3c2)n1 [Compound P-0204, N-(1-cyano-1-methyl-ethyl)-6-[2-[2-(trifluoromethyl)pyrimidin-5-yl]-1H-pyrrolo[2,3-b]pyridin-5-yl]pyridine-2-carboxamide]
9 | 0.0001 to 10 | 0.0001 to 10 | CCc1ncc(-c2cc3cc(-c4cccc(C(=O)NC(C)(C)C#N)n4)cnc3[nH]2)cn1 [Compound P-0205, N-(1-cyano-1-methyl-ethyl)-6-[2-(2-ethylpyrimidin-5-yl)-1H-pyrrolo[2,3-b]pyridin-5-yl]pyridine-2-carboxamide]
10 | 0.0001 to 10 | 0.0001 to 10 | CCCOc1ncc(-c2cc3cc(-c4cccc(C(=O)NC(C)(C)C#N)n4)cnc3[nH]2)cn1 [Compound P-0206, N-(1-cyano-1-methyl-ethyl)-6-[2-(2-propoxypyrimidin-5-yl)-1H-pyrrolo[2,3-b]pyridin-5-yl]pyridine-2-carboxamide]
11 | 0.0001 to 10 | 0.0001 to 10 | CC(C)(C#N)NC(=O)c1cccc(-c2cnc3[nH]c(-c4ccc(F)nc4)cc3c2)n1 [Compound P-0208, N-(1-cyano-1-methyl-ethyl)-6-[2-(6-fluoro-3-pyridyl)-1H-pyrrolo[2,3-b]pyridin-5-yl]pyridine-2-carboxamide]
12 | 0.0001 to 10 | 0.0001 to 10 | CC(C)(C#N)NC(=O)c1cccc(-c2cnc3[nH]c(-c4cnc(C(C)(C)O)nc4)cc3c2)n1 [Compound P-0211, N-(1-cyano-1-methyl-ethyl)-6-[2-[2-(1-hydroxy-1-methyl-ethyl)pyrimidin-5-yl]-1H-pyrrolo[2,3-b]pyridin-5-yl]pyridine-2-carboxamide]
